Patent US4123552A, “Compositions for preserving crops and animal feedstuffs” (Chevron Research Company, priority 1975, dated 1978)

How the values were obtained:
high moisture corn = test: Preservation of high moisture corn in ventilated cans (time until temperature exceeds room temperature); conditions: for Weeks Effective: corn 25 percent moisture, 70-72 F
Method: High moisture corn (25 percent moisture) was treated with various methylene and polyoxymethylene esters of propionic or acetic acid of various dosages. The esters were applied to the corn in a mixer for one minute at 32 RPM. Three replicate two gallon ventilated cans were filled with the treated corn. The cans were then held at a temperature of 70°-72° F. Temperature readings were taken semi-weekly by means of thermocouples in the center of each can. When the temperature exceeded constant room temperature for at least an 8-hour period the treatment was considered broken.

All Species = test: Control of seed- and soil-borne pathogens during storage of corn seeds (Table IV), all species; format: cell-based, Rhizopus, Penicillium, Fusarium; conditions: relative to untreated check
Method: A variety of bis-esters was tested for the control of seed- and soil-borne pathogens during storage of corn seeds (Zea mays) by the following procedure.
(§1) A small amount of acetone was added to the bis-ester to make specific volume, plus a small portion of emulsifier making it into a slurry. This preparation was diluted with water to the desired concentration. Solution was then evenly distributed on the wall of a glass jar. High moisture feedcorn with natural infection was stored frozen after harvest until used for this test. The corn seeds were rolled in the jar until they were coated and the solution was completely absorbed on them.
(§2) Following the treatment, the corn seeds were plated on Potato Dextrose Agar plates. For comparison, untreated corn seeds were also plated. Propionic acid was also tested for comparison.
The percentage control of all species was based on the total sum average of mycelial growth in millimeters of all species in the treated seeds relative to the untreated check. The fast growing Rhizopus was evaluated 7 days after treatment, the other fungi after 14 days.

[1] = Solubility of insecticides in methylene bispropionate; format: physicochemical; conditions: solvent methylene bispropionate
Method: Methylene bispropionate was tested as a solvent for various insecticides. […] O,S-dimethylN-acetyl phosphoramidothioate was soluble in methylene bispropionate to the extent of 5 percent by weight. Chlordane was soluble in methylene bispropionate to the extent of at least 75 percent by weight.

Rhizopus sp. = test: Concentration for 90% control of pathogen on corn seeds (Table V), Rhizopus sp.; format: cell-based; conditions: 5 days after treatment
Method: as §1, §2
(§3) A variety of bis-esters was tested for the control of seed- and soil-borne pathogens during the storage of corn seeds (Zea mays) by the procedure of Example 11. For comparison, propionic acid was also tested.
(§4) Control of each pathogen was determined by mycelial growth in millimeters in the treated seeds relative to untreated seeds. Mycelial growth of Rhizopus species and Fusarium species was evaluated 5 days after treatment. Mycelial growth in Aspergillus niger was evaluated 14 days after treatment.
(§5) The bis-ester tested and the concentration of active ingredient in ounces per 100 lbs. of corn seeds for 90 percent control of each pathogen species are tabulated in Table V.

Aspergillus niger = test: Concentration for 90% control of pathogen on corn seeds (Table V), Aspergillus niger; format: cell-based; conditions: corn seeds; 14 days after treatment
Method: as §1, §2, §3, §4, §5

Fusarium sp. = test: Concentration for 90% control of pathogen on corn seeds (Table V), Fusarium sp.; format: cell-based; conditions: 5 days after treatment
Method: as §1, §2, §3, §4, §5

## CC(=O)OCOC(C)=O [Methylene Bisacetate]
High moisture corn; 3 Oz/Bu
  Weeks Effective: 6 Weeks
High moisture corn; 6 Oz/Bu
  Weeks Effective: > 12 Weeks

## CC(=O)OCOCOC(C)=O [Oxybismethylene Acetate, Oxybismethylene Bisacetate]
High moisture corn; 3 Oz/Bu
  Weeks Effective: 5 Weeks
High moisture corn; 6 Oz/Bu
  Weeks Effective: > 12 Weeks

## CCC(=O)OC(C)OC(=O)CC [Ethylidene Bispropionate]
All Species; 1.0 Oz./100 Lbs.
  % Control All Species: 44%
All Species; 2.5 Oz./100 Lbs.
  % Control All Species: 50%
All Species; 6.4 Oz./100 Lbs.
  % Control All Species: 83%
All Species; 16 Oz./100 Lbs.
  % Control All Species: 91%

## COP(=O)(NC(C)=O)SC (stereo not drawn) [O,S-dimethylN-acetyl phosphoramidothioate]
[1]
  solubility in methylene bispropionate: 5 percent by weight

## ClC1=C(Cl)C2(Cl)C3C(Cl)C(Cl)CC3C1(Cl)C2(Cl)Cl (stereo not drawn) [Chlordane]
[1]
  solubility in methylene bispropionate: at least 75 percent by weight

## CC(C)C(=O)OCOCOC(=O)C(C)C [Oxybismethylene Bisisobutyrate]
Rhizopus sp.
  Conc. for 90% Control, Rhizopus sp.: 1.2 oz./100 lbs.
All Species; 1.0 Oz./100 Lbs.
  % Control All Species: 73%
All Species; 2.5 Oz./100 Lbs.
  % Control All Species: 87%
All Species; 6.4 Oz./100 Lbs.
  % Control All Species: 100%
All Species; 16 Oz./100 Lbs.
  % Control All Species: 100%
Aspergillus niger
  Conc. for 90% Control, Aspergillus niger: 0.88 oz./100 lbs.
Fusarium sp.
  Conc. for 90% Control, Fusarium sp.: 0.88 oz./100 lbs.

## CCC(=O)O [Propionic acid, reference compound]
Rhizopus sp.
  Conc. for 90% Control, Rhizopus sp.: 3.8 oz./100 lbs.
High moisture corn; 2 Oz/Bu
  Weeks Effective: 6 Weeks
High moisture corn; 3 Oz/Bu
  Weeks Effective: 6 Weeks
High moisture corn; 4 Oz/Bu
  Weeks Effective: > 12 Weeks
High moisture corn; 6 Oz/Bu
  Weeks Effective: > 12 Weeks
All Species; 1.0 Oz./100 Lbs.
  % Control All Species: 28%
All Species; 2.5 Oz./100 Lbs.
  % Control All Species: 60%
All Species; 6.4 Oz./100 Lbs.
  % Control All Species: 99%
All Species; 16 Oz./100 Lbs.
  % Control All Species: 99%
Aspergillus niger
  Conc. for 90% Control, Aspergillus niger: 3.4 oz./100 lbs.
Fusarium sp.
  Conc. for 90% Control, Fusarium sp.: 9.6 oz./100 lbs.

## CCC(=O)OCOCOC(=O)CC [Oxybismethylene Propionate, Oxybismethylene Bispropionate]
High moisture corn; 2 Oz/Bu
  Weeks Effective: 6 Weeks
High moisture corn; 3 Oz/Bu
  Weeks Effective: 12 Weeks
High moisture corn; 4 Oz/Bu
  Weeks Effective: > 12 Weeks
High moisture corn; 5 Oz/Bu
  Weeks Effective: > 12 Weeks
High moisture corn; from Table II
  effectiveness in preservation of high moisture corn (in words): remarkably superior to propionic acid in the preservation of high moisture corn
